These results are taken from PubChem BioAssay (NCI).

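Five compound concentrations were applied to cells in 96-well plates for 48 hours; endpoints were derived by simple linear interpolation of the resulting dose-response curve. GI50: concentration for 50% inhibition of growth. The concentration for full growth arrest is given as TGI.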

Test systems include SK-MEL-5 melanoma; BT-549 breast; MDA-MB-231 breast; CCRF-CEM leukemia; OVCAR-3 ovarian; A549 NSCLC; SNB-19 CNS; SR leukemia; SF-268 CNS; UO-31 renal.
Common to all, as to assay: NCI tumour cell line growth inhibition, 48 h

As to `CC[C@]12C=CCN3CC[C@@]4(c5ccc(OC)cc5N(C)[C@H]4[C@@](O)(C(=O)OC)[C@@H]1OC(=O)CCC(=O)O[C@H]1CC[C@H]4[C@@H]5CCC6=CC(=O)CC[C@@H]6[C@H]5CC[C@]14C)[C@@H]32`, the GI50 is 0.99 µM with SK-MEL-5 melanoma; 1.62 µM in the test with BT-549 breast; 2.21 µM in the test with MDA-MB-231 breast; 1.66 µM with CCRF-CEM leukemia; 1.73 µM in the test with OVCAR-3 ovarian; 1.64 µM in the test on A549 NSCLC. For the same compound, the GI50 was 2.31 µM in the test on SNB-19 CNS, 1.52 µM in the test with SR leukemia and 2.17 µM in the test with SF-268 CNS. The TGI was 2.1 µM with SK-MEL-5 melanoma; 9.38 µM with BT-549 breast; greater than 50 µM in the test on MDA-MB-231 breast; greater than 50 µM with CCRF-CEM leukemia; 31.9 µM with OVCAR-3 ovarian; greater than 50 µM in the test on A549 NSCLC. Moreover, the TGI in the test with SNB-19 CNS, in the test with SR leukemia and with SF-268 CNS was greater than 50 µM in each case.
Take `Cc1ccc(C2=NN(c3ccc(S(=O)(=O)NC(=O)NCc4ccccc4)cc3)C(c3ccc(N(C)C)cc3)C2)c(C)c1` (configuration not stated): the GI50 with SK-MEL-5 melanoma was 2.32 µM; in the test on BT-549 breast, 3.94 µM; with MDA-MB-231 breast, 4.16 µM; in the test with CCRF-CEM leukemia, 3.2 µM; in the test with OVCAR-3 ovarian, 2.24 µM; in the test with A549 NSCLC, 3.46 µM. Moreover, the figures for the GI50 with SNB-19 CNS, with UO-31 renal and in the test on SF-268 CNS were 4.6 µM, 4.27 µM and 4.37 µM, respectively. For the same compound, the TGI came out at 5.62 µM in the test with SK-MEL-5 melanoma; 19.9 µM in the test with BT-549 breast; 22.4 µM in the test on MDA-MB-231 breast; 89 µM in the test on CCRF-CEM leukemia; 4.95 µM in the test on OVCAR-3 ovarian; 16.4 µM in the test with A549 NSCLC. The TGI is greater than 100 µM with SNB-19 CNS, 15.7 µM in the test on UO-31 renal and 45.1 µM in the test with SF-268 CNS.
As for `CC(=O)OC(COc1ccc2c(c1)[n+]([O-])nc(N)[n+]2[O-])CN1CCCCC1` (configuration not stated), the TGI is 14.6 µM with SK-MEL-5 melanoma; greater than 100 µM with BT-549 breast; 28 µM with MDA-MB-231 breast; 79.3 µM in the test on CCRF-CEM leukemia; 38 µM in the test with OVCAR-3 ovarian; 40.7 µM in the test on A549 NSCLC. The results for the TGI with SNB-19 CNS, in the test on SR leukemia and in the test on UO-31 renal were greater than 100 µM, 70.1 µM and greater than 100 µM, respectively.
As to `Nc1nc(N)c2cc(S(=O)(=O)c3ccc4ccccc4c3)ccc2n1`, the TGI in the test on SK-MEL-5 melanoma is greater than 65.7 µM; in the test on BT-549 breast, greater than 100 µM; in the test on MDA-MB-231 breast it was greater than 31.6 µM; with CCRF-CEM leukemia, greater than 100 µM; in the test with OVCAR-3 ovarian, greater than 100 µM; with A549 NSCLC, greater than 100 µM. Moreover, the results for the TGI in the test on SNB-19 CNS, in the test on SR leukemia and in the test on SF-268 CNS were 63.5 µM, greater than 100 µM and greater than 58.9 µM, respectively. Also, the GI50 in the test with CCRF-CEM leukemia and with SR leukemia was greater than 100 µM in each case.
For `O=S(=O)(NCCNc1nccc(-c2c(-c3ccc(F)cc3)nc3sccn23)n1)c1ccc(O)cc1`, the GI50 is 1.39 µM in the test with SK-MEL-5 melanoma; 3.14 µM in the test with BT-549 breast; 7.77 µM with MDA-MB-231 breast; 2 µM in the test on CCRF-CEM leukemia; 3.28 µM with A549 NSCLC; 12.5 µM with SNB-19 CNS. Further, the GI50 in the test with SR leukemia is 1.82 µM; in the test with UO-31 renal it was 2.39 µM; in the test on SF-268 CNS, 3.99 µM. In addition, the TGI was 10.7 µM in the test on SK-MEL-5 melanoma; 19.1 µM with BT-549 breast; 70.1 µM in the test with MDA-MB-231 breast; 29.8 µM in the test on CCRF-CEM leukemia; 43.1 µM in the test on A549 NSCLC; greater than 100 µM with SNB-19 CNS. In addition, the results for the TGI in the test with SR leukemia, in the test with UO-31 renal and with SF-268 CNS were 21.5 µM, 16.7 µM and 56.2 µM, respectively.
In the case of `O=C(/C=C(/C=C/c1cccc2[nH]ccc12)OB(F)F)/C=C/c1cccc2[nH]ccc12`, the GI50 with SK-MEL-5 melanoma was 1.26 µM; in the test with BT-549 breast it was 1.03 µM; with MDA-MB-231 breast it was 1.55 µM; in the test with CCRF-CEM leukemia, 0.324 µM; in the test on OVCAR-3 ovarian, 0.353 µM; in the test on A549 NSCLC, 1.62 µM. In addition, the results for the GI50 with SNB-19 CNS, with SR leukemia and in the test with SF-268 CNS were 1.44 µM, 0.46 µM and 1.13 µM, respectively. Also, the TGI is 2.73 µM with SK-MEL-5 melanoma; 4.09 µM in the test on BT-549 breast; 5.19 µM in the test with MDA-MB-231 breast; 1.23 µM in the test on OVCAR-3 ovarian; 14.2 µM with A549 NSCLC; 4.16 µM with SNB-19 CNS. Also, the TGI in the test with SR leukemia is greater than 100 µM; in the test with SF-268 CNS it was 3.98 µM.
Turning to `CC(C)n1cc(-c2ccc3c(c2)N(C)CC3)c2c(NS(=O)(=O)c3ccn(C)n3)ccnc21`, the GI50 in the test with SK-MEL-5 melanoma is 37.4 µM; with BT-549 breast it was 25.3 µM; with MDA-MB-231 breast, 76.1 µM; in the test with CCRF-CEM leukemia, greater than 100 µM; in the test on OVCAR-3 ovarian it was 60.4 µM; in the test on A549 NSCLC it was 44 µM. In addition, the GI50 in the test on SNB-19 CNS is greater than 100 µM; with UO-31 renal, 31.7 µM; in the test with SF-268 CNS, 62 µM. The TGI in the test on SK-MEL-5 melanoma, in the test on BT-549 breast, in the test on MDA-MB-231 breast, in the test on CCRF-CEM leukemia, in the test with OVCAR-3 ovarian and in the test with A549 NSCLC was greater than 100 µM each time. Besides, the TGI in the test with SNB-19 CNS, with UO-31 renal and in the test with SF-268 CNS was greater than 100 µM each time.
`COc1ccc(C2=C(c3ccccc3)C(=O)N3CCCC3C2)cc1` (configuration not stated): the GI50 in the test on SK-MEL-5 melanoma is 3.17 µM; in the test on BT-549 breast, 32.5 µM; in the test on MDA-MB-231 breast, greater than 36.1 µM; in the test with CCRF-CEM leukemia, 1.79 µM; in the test with OVCAR-3 ovarian, 57 µM; in the test with A549 NSCLC, 0.195 µM. For the same compound, the GI50 was 8.01 µM in the test with SNB-19 CNS, 2.93 µM with UO-31 renal and 26 µM with SF-268 CNS. Also, the TGI in the test on SK-MEL-5 melanoma, in the test with BT-549 breast, with MDA-MB-231 breast, with CCRF-CEM leukemia, with OVCAR-3 ovarian and in the test with A549 NSCLC was greater than 100 µM each time. For the same compound, the TGI in the test on SNB-19 CNS, in the test on UO-31 renal and in the test on SF-268 CNS was greater than 100 µM each time.
On to `COc1cc(/C=C2\CC3C4CCC5=CC(=O)CC[C@]5(C)C4CC[C@]3(C)C2=O)ccc1OCCN1CCCC1` (some centres not stated), for which the GI50 is 1.8 µM in the test on SK-MEL-5 melanoma; 8.44 µM with BT-549 breast; 2.01 µM in the test on MDA-MB-231 breast; 1.12 µM in the test with CCRF-CEM leukemia; 2.37 µM in the test with OVCAR-3 ovarian; 4.45 µM with A549 NSCLC. The results for the GI50 in the test on SNB-19 CNS, in the test with UO-31 renal and in the test with SF-268 CNS were 4.16 µM, 1.68 µM and 3.41 µM, respectively. The TGI in the test with SK-MEL-5 melanoma is 3.5 µM; in the test on BT-549 breast it was 23.3 µM; with MDA-MB-231 breast, 5.1 µM; in the test on CCRF-CEM leukemia, 4.35 µM; in the test with OVCAR-3 ovarian, 6.01 µM; with A549 NSCLC, greater than 100 µM. The TGI with SNB-19 CNS was found to be 18.8 µM; in the test on UO-31 renal it was 3.38 µM; with SF-268 CNS it was 19.4 µM.
As for `CC(C)[C@@]12C[C@@H](OC(=O)COC(=O)c3ccccc3)[C@@](C)(O1)[C@@H]1CC[C@@H](C)[C@H]1[C@@H]2OC(=O)/C=C/c1ccccc1`, the GI50 in the test with SK-MEL-5 melanoma was greater than 100 µM; in the test on BT-549 breast, 0.304 µM; with MDA-MB-231 breast, greater than 100 µM; in the test with CCRF-CEM leukemia, greater than 100 µM; in the test with OVCAR-3 ovarian it was greater than 100 µM; in the test with A549 NSCLC, greater than 100 µM. Also, the GI50 in the test with SNB-19 CNS was greater than 100 µM; in the test on UO-31 renal it was 0.115 µM. Further, the TGI with SK-MEL-5 melanoma, with BT-549 breast, with MDA-MB-231 breast, in the test on CCRF-CEM leukemia, in the test on OVCAR-3 ovarian and in the test on A549 NSCLC was greater than 100 µM each time. For the same compound, the TGI with SNB-19 CNS was greater than 100 µM; in the test on UO-31 renal, 1.66 µM; in the test on SF-268 CNS it was greater than 100 µM.
Take `COc1ccc(-c2cc(=O)c3c(OC)c4ccoc4c(/C=C/C=O)c3o2)cc1`: the GI50 in the test with SK-MEL-5 melanoma was 1.69 µM; in the test with BT-549 breast, 2.14 µM; in the test on MDA-MB-231 breast, 4.22 µM; with CCRF-CEM leukemia, 1.09 µM; in the test on OVCAR-3 ovarian, 3.92 µM; in the test with A549 NSCLC, 18.5 µM. In addition, the values for the GI50 in the test on SNB-19 CNS, with UO-31 renal and in the test on SF-268 CNS were 3.16 µM, 3.17 µM and 4.38 µM, respectively. The TGI in the test with SK-MEL-5 melanoma was 3.51 µM; with BT-549 breast, 7.15 µM; with MDA-MB-231 breast, 85.3 µM; in the test on CCRF-CEM leukemia, greater than 100 µM; in the test on OVCAR-3 ovarian, 25.3 µM; with A549 NSCLC, 72.4 µM. In addition, the TGI with SNB-19 CNS was 46.6 µM; with UO-31 renal, 19.5 µM; in the test with SF-268 CNS, 87.2 µM.
As to `CCOC(=O)C1=C(C)NC2SC(=O)/C(=C\c3cccc(Cl)c3)N2C1c1ccccc1` (configuration not stated), the GI50 in the test on SK-MEL-5 melanoma was 58.7 µM; with BT-549 breast, greater than 100 µM; in the test on MDA-MB-231 breast, greater than 100 µM; with CCRF-CEM leukemia, greater than 100 µM; with OVCAR-3 ovarian, greater than 100 µM; in the test on A549 NSCLC, greater than 100 µM. In addition, the GI50 in the test with SNB-19 CNS, with UO-31 renal and with SF-268 CNS was greater than 100 µM throughout. For the same compound, the TGI in the test with SK-MEL-5 melanoma, in the test with BT-549 breast, in the test on MDA-MB-231 breast, in the test with CCRF-CEM leukemia, in the test with OVCAR-3 ovarian and in the test with A549 NSCLC was greater than 100 µM each time. For the same compound, the TGI in the test on SNB-19 CNS, in the test with UO-31 renal and in the test with SF-268 CNS was greater than 100 µM throughout.
As for `O=C(CCN1CCCCC1)c1csc2ccccc12`, the TGI in the test on SK-MEL-5 melanoma, with BT-549 breast, in the test with MDA-MB-231 breast, with OVCAR-3 ovarian, in the test with A549 NSCLC and with SNB-19 CNS was greater than 100 µM in each case. For the same compound, the TGI in the test on SR leukemia, in the test with UO-31 renal and with SF-268 CNS was greater than 100 µM each time.
